The record followed here is patent publication US5051405A, “Anti-thrombotic peptides and pseudopeptides” (Rhone-Poulenc Rorer Pharmaceuticals Inc., priority 1989, dated 1991).

SMILES strings stand for the structures. Where a SMILES comes first, the peptide text is derived from it. [ ]: non-standard residue; d: D form. Inp = O=C(O)C1CCNCC1 A value given as a limit tells only on which side of the number the result lay.

For test [1], the target named is T1, fibrinogen binding to thrombin-stimulated platelets (GPIIb/IIIa fibrinogen receptor) (Homo sapiens, UniProt P05106+P08514).
T1 construct: endogenous in cells; host or cells: washed platelets, thrombin-stimulated
The test can be described thus: Inhibition of radiolabeled (125I) fibrinogen binding assay. The conditions noted are these: thrombin-stimulated washed platelets; 125I-fibrinogen held at 0.176 μmol/liter (60 μg/ml); 22°-25° C. As for the experimental part:
I. Inhibition of Radiolabeled (^125 I) Fibrinogen Binding Assay, which is essentially based on the method described in Proc. Natl. Acad. Sci. U.S.A. Vol. 83, pp. 5708-5712, August 1986, and is as follows.
Platelets are washed free of plasma constituents by the albumin density-gradient technique. In each experimental mixture platelets in modified Tyrode's buffer are stimulated with human α-thrombin at 22°-25° C. for 10 minutes (3.125×10" platelets per liter and thrombin at […]). Hirudin is then added at a 25-fold excess for 5 minutes before addition of the radiolabeled ligand and any competing ligand. After these additions, the final platelet count in the mixture is 1×10"/liter. After incubation for an additional 30 minutes at 22°-25° C., bound and free ligand are separated by centrifuging 50 μl of the mixture through 300 μl of 20% sucrose at 12,000 xg for 4 minutes. The platelet pellet is then separated from the rest of the mixture to determine platelet-bound radioactivity. Nonspecific binding is measured in mixtures containing an excess of unlabeled ligand. When binding curves are analyzed by Scatchard analysis, nonspecific binding is derived as a fitted parameter from the binding isotherm by means of a computerized program. To determine the concentration of each inhibitory compound necessary to inhibit 50% of fibrinogen binding to thrombin-stimulated platelets (IC50), each compound is tested at 6 or more concentrations with ^125 I-labeled fibrinogen held at 0.176 μmol/liter (60 μg/ml). The IC50 is derived by plotting residual fibrinogen binding against the logarithm of the sample compound's concentration.

In another test the target is Human Platelets (Homo sapiens, UniProt P05106+P08514). As to the kind of experiment: Inhibition of fibrinogen-mediated platelet aggregation. Format: cell-based. The note with it: compound at 100 μM; thrombin-activated human platelets, human fibrinogen added. As for the experimental part:
II. Inhibition of Fibrinogen - Mediated Platelet Aggregation, which is essentially based on the method described in Blood, Vol. 66, No. 4, Oct. 1985, pp. 946-952, and is as follows.
Human Platelets were isolated from freshly drawn whole blood and were suspended in 0.14 mol/L NaCl, 2.7 mmol/L […], 12 mmol/L NaHCO3, 0.42 mmol/L Na2 HPO4, 0.55 mmol/L glucose, and 5 mmol/L Hepes, pH 7.35 at 2×10^8 platelets/ml. The suspension was incubated at 37° C. An aliquot of 0.4 ml of platelet suspension was activated by human thrombin at a final concentration of 2 μg/ml of thrombin for one minute. After one minute the reaction was stopped by a thrombin inhibitor. Serial dilution of the compound being tested was then added to the activated platelet, the reaction was allowed to proceed for one minute, followed by the addition of human fibrinogen at a final concentration of […] of fibrinogen. Platelet aggregation was then recorded by an aggregometer. Rate of aggregation was used to calculate IC50.

For orientation: IC50 means the concentration that inhibits the measured activity by half. Lower therefore signals higher potency. Usually inhibition stands for the percentage by which the read-out fell short of the control.

Sequence of Human Platelets (P08514 32-1039): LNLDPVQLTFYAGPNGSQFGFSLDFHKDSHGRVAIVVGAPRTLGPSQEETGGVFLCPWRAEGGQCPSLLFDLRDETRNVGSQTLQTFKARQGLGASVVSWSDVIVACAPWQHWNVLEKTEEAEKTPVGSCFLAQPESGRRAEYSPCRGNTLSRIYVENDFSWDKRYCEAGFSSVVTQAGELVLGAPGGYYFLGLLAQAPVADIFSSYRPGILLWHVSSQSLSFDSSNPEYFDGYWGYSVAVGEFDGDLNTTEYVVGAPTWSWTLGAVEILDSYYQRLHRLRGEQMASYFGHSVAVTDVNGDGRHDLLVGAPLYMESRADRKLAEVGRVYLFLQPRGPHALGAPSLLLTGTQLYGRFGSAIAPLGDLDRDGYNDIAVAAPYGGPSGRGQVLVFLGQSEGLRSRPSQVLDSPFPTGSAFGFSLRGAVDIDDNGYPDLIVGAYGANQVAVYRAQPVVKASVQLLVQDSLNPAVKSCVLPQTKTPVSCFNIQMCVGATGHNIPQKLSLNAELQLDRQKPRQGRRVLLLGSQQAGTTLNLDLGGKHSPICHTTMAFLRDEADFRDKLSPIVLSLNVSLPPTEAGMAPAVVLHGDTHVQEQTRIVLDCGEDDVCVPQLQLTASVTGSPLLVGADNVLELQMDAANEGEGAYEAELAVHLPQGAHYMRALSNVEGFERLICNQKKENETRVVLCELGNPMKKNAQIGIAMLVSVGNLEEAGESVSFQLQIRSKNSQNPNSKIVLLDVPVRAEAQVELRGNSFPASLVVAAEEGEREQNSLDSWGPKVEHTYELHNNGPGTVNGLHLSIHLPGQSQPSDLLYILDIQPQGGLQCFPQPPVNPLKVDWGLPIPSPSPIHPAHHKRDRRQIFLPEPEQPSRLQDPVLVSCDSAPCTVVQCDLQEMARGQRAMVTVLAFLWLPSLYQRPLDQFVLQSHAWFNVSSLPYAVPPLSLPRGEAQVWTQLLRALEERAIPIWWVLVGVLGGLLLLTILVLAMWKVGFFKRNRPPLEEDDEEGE
Sequence of Human Platelets (P05106 27-788): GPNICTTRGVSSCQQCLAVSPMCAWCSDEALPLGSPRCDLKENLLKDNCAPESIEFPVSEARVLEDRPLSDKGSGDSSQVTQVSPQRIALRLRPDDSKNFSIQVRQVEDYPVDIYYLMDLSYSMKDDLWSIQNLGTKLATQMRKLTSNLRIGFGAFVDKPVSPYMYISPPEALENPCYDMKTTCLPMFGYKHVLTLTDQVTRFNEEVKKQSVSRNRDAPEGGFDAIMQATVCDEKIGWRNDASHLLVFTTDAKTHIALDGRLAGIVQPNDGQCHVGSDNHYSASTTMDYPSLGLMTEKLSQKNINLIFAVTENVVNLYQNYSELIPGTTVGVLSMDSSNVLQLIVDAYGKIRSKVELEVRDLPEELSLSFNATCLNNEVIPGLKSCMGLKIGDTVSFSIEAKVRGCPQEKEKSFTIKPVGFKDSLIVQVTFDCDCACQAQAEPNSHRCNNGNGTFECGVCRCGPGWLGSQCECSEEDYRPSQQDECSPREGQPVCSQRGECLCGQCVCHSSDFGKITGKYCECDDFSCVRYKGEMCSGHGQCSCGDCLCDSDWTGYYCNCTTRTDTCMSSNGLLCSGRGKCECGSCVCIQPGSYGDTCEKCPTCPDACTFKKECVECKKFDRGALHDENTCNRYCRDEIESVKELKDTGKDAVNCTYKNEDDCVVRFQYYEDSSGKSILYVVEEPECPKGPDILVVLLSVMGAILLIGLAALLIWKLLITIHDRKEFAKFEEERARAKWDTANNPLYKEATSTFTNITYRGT
T1 sequence (P08514 32-887 limits assumed): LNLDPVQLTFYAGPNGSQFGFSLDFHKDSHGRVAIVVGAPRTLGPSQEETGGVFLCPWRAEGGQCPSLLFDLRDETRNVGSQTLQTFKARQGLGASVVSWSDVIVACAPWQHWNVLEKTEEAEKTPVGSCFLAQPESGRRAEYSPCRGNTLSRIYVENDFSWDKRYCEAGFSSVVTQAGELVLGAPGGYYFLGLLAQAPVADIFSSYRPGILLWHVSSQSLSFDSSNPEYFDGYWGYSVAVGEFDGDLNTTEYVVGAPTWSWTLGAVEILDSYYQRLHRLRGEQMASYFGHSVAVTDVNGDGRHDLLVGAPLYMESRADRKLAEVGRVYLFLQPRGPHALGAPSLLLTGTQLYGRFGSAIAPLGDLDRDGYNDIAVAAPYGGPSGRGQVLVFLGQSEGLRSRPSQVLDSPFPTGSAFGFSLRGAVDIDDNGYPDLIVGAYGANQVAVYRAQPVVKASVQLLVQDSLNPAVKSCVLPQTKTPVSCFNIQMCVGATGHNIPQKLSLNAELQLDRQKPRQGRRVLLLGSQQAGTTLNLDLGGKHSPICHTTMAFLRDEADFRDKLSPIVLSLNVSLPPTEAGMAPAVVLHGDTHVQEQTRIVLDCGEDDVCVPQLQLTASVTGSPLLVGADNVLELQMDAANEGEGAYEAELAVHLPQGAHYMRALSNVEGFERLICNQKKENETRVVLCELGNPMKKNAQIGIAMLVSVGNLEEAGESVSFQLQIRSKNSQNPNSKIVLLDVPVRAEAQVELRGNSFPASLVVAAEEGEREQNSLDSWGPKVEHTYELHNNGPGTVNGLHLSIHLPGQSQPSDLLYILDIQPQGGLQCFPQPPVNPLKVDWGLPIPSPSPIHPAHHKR
T1 sequence (P08514 891-1039 limits assumed): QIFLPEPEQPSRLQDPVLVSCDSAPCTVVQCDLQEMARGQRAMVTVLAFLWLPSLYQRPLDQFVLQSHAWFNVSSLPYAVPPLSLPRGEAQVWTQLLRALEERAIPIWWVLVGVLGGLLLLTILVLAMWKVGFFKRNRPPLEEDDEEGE
T1 sequence (P05106 27-788): as the sequence (P05106 27-788) above

The compound `CC(C)[C@H](NC(=O)[C@H](CC(=O)O)NC(=O)CNC(=O)C1CCN(C(=N)N)CC1)C(=O)O` [1-Amidinopiperidine-4-Carboxylglycyl-L-Aspartyl-L-Valine] gave an IC50 in test [1] of 1.8 µM. Also, 100 µM produced 92% inhibition against Human Platelets.
In test [1], `CC(C)[C@H](NC(=O)[C@H](CC(=O)O)NC(=O)CNC(=O)C1CCCN(C(=N)N)C1)C(=O)O` (stereo partly drawn) [N-amidinopiperidine-3-carboxylglycyl-L-aspartyl-L-valine] showed an IC50 of 10.5 µM. In addition, on Human Platelets, the inhibition at 100 µM came out at 87%.
The like results for `CC(C)[C@H](NC(=O)[C@H](CC(=O)O)NC(=O)CNC(=O)C1CCCNC1)C(=O)O` (stereo partly drawn) [Piperidine-3-Carboxylglycyl-L-Aspartyl-L-Valine] were, in that order, > 64 µM and 78%.
In test [1], `CC(C)[C@H](NC(=O)[C@H](CC(=O)O)NC(=O)CNC(=O)C1CCNCC1)C(=O)O` [Piperidine-4-carboxylglycyl-L-Aspartyl-L-Valine] (H-[Inp]GDV-OH) had an IC50 of 10.5 µM. On Human Platelets, this compound came in with an inhibition at 100 µM of 86%.
